Measurements taken from patent publication US20090203661A1, “Betulinic acid, derivatives and analogs thereof and uses therefor” (priority 2006, published 2009).
Residues, ends and D or L forms follow the SMILES beside them. *: point of attachment. Cbz = O=C(OCc1ccccc1)*

Legend:
SW480 cells [1] = settings: SW480, earlier reports; cited from earlier work
HT-29 cells [2] = settings: HT-29, earlier reports; cited from earlier work
LNCaP cells = assay: Western blot analysis of protein expression in LNCaP cells; type: cell-based, Human; settings: 10 μM, compound alone
Description: Human carcinoma cell lines LNCaP (prostate) and SK-MEL2 (melanoma) were obtained from American Type Culture Collection (Manassas, Va.). Cell lines were maintained in RPMI 1640 (Sigma) supplemented with 0.22% sodium bicarbonate, 0.011% sodium pyruvate, 0.45% glucose, 0.24% HEPES, 10% FBS, and 10 mL/L of 100× Antibiotic Antimycotic solution (Sigma). Cells were maintained at 37° C. in the presence of 5% CO2.
An equal amount of cell lysate (60 μg/well) was separated by 7.5% to 12% SDS-PAGE, which was followed by immunoblotting onto polyvinylidene difluoride (Bio-Rad, Hercules, Calif.). After blocking in TBST-Blotto (10 mmol/L Tris-HCl, 150 mmol/L NaCl (pH 8.0), 0.05% Triton X-100, 5% nonfat dry milk) for 30 min, the membranes were incubated with primary antibodies overnight at 4° C. and then with horseradish peroxidase-conjugated secondary antibody for 2 hr at room temperature. Proteins were visualized using the chemiluminescence substrate (Perkin-Elmer Life Sciences) for 1 min and exposed to Kodak X-OMAT AR autoradiography film (Eastman Kodak, Rochester, N.Y.).

SW480 cells [3] = settings: SW480, reference [9]; cited from earlier work
HT-29 cells [4] = assay: KLF4 mRNA (RT-PCR) in HT-29 cells; type: cell-based, human
Description: SW480 and HT29 colon cancer cells were treated either with vehicle (DMSO) or indicated compounds and after 24 hr total RNA was extracted using RNeasy Mini kit (Qiagen, Inc., Valencia, Calif.). RNA concentration was measured by UV 260:280 nm absorption ratio and 2 μg RNA was used to synthesize cDNA using Reverse Transcription System (Promega). PCR conditions were as follows: initial denaturation at 94° C. (1 min) followed by 28 cycles of denaturation for 30 s at 94° C., annealing for 60 s at 55° C. and extension at 72° C. for 60 s and a final extension step at 72° C. for 5 min. The mRNA levels were normalized using GAPDH as an internal housekeeping gene. Primers obtained from IDT and used for amplification are as follows: KLF4 (sense 5′-CTATGGCAGGGAGTCCGCTCC-3′ (SEQ ID NO: 1); antisense 5′-ATGACCGACGGGCTGCCGTAC-3′ (SEQ ID NO: 2)) and GAPDH (sense 5′-ACGGATTTGGTCGTATTGGGCG-3′ (SEQ ID NO: 3); antisense 5′-CTCCTGGAAGATGGTGATGG-3′ (SEQ ID NO: 4). PCR products were electrophoresed on 1% agarose gels containing ethidium bromide and visualized under UV transillumination.

PPARγ = biological target: T1, PPARγ (Homo sapiens, UniProt P37231); assay: Mammalian two-hybrid assay (VP-PPARγ / GAL4-coactivator) in SW480 cells; type: cell-based
T1 construct: containing the DEF region of the PPARγ (amino acids 183-505) fused to the pVP16 expression vector; expressed in transfected cells; host or cells: SW480 colon cancer cells; plasmid provided by Dr. Shigeaki Kato (University of Tokyo)
T1 sequence (P37231 183-505): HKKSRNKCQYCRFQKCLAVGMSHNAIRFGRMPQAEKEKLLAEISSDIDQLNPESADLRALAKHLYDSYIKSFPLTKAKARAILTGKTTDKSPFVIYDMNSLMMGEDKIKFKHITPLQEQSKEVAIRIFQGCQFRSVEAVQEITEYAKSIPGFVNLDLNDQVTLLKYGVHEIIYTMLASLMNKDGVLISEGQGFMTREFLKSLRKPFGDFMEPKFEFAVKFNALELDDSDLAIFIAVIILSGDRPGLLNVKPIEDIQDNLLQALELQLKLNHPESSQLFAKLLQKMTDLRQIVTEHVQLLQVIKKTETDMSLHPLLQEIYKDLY
Description: The GAL4 reporter construct containing 5×GAL4 response elements (p GAL4) was provided by Dr. Marty Mayo (University of […], Chapel Hill, N.C.). The GAL4-coactivator fusion plasmids pM-SRC1, pMSRC2, pMSRC3, pM-DRIP205, pM-CARM-1 and PPARγ-VP16 fusion plasmid (Vp-PPARγ) containing the DEF region of the PPARγ (amino acids 183-505) fused to the pVP16 expression vector were provided by Dr. Shigeaki Kato (University of Tokyo, Tokyo, Japan). SW480 colon cancer cells were plated in 12-well tissue culture plates at 1×10^5 cells per well in DMEM/Ham's F-12 medium supplemented with 2.5% charcoal stripped FBS.
After allowing them to adhere overnight, transient transfections were carried out with GAL4-Luc (0.4 μg), β-GAL (0.04 μg), VP-PPARγ (0.04 μg), pM-SRC1 (0.04 μg), pM-PGC-1 (0.04 μg), pM-SMRT (0.04 μg), pM-TRAP220 (0.04 μg), pM-DRIP205 (0.04 μg), and pMCARM1 (0.04 μg) using LipofectAMINE2000 (Invitrogen) following the manufacturer's guidelines. After 6 hr of transfection, cells were treated in triplicate either with vehicle (DMSO) or the indicated compound suspended in complete medium for 20-24 hr. One hundred μL per well of 1× Reporter Lysis Buffer (Promega) was used to lyse the cells and 30 μl of this lysate was used to perform the luciferase and β-GAL assays using Lumicount (Perkin-Elmer Life and Analytical Sciences, Boston, Mass.). The luciferase activities obtained were normalized to the β-gal activity.

For `CC1(C)CC[C@]2(C(=O)O)CC[C@]3(C)[C@H](C(=O)C=C4[C@@]5(C)C=C(C#N)C(=O)C(C)(C)[C@@H]5CC[C@]43C)[C@@H]2C1` [CDDO], the caveolin-1 induction (SW480 cells [1]) is given as “inducing caveolin-1” and the caveolin-1 induction (HT-29 cells [2]) is given as “inducing caveolin-1”.
In the case of `CC(C)C[C@@H](C=O)NC(=O)[C@H](CC(C)C)NC(=O)[C@H](CC(C)C)NC(=O)OCc1ccccc1` [MG132] (Cbz-Leu-Leu-Leu-aldehyde), the PARP cleavage (LNCaP cells) is reported as “induced caspase-dependent cleavage of PARP”.
For `COC(=O)[C@@]1(C)CC[C@]2(C)CC[C@]3(C)C(=CC(=O)[C@@H]4[C@@]5(C)C=C(C#N)C(=O)C(C)(C)[C@@H]5CC[C@]43C)[C@H]2C1` [α-CDODA-Me], the caveolin-1 induction (SW480 cells [1]) is listed as “inducing caveolin-1”, the caveolin-1 induction (HT-29 cells [2]) is listed as “inducing caveolin-1” and the “KLF4 mRNA” value (SW480 cells [3]) is listed as “enhanced KLF4 mRNA”.
With `COC(=O)[C@@]1(C)CCC2(C)CC[C@]3(C)C(=CC(=O)[C@@H]4C5(C)C=C(C#N)C(=O)C(C)(C)[C@@H]5CCC43C)C2C1` (stereo partly drawn) [β-CDODA-Me, Methyl 2-cyano-3,12-dioxo-18β-olean-1,12-diene-30-oic Acid, reference compound] the “effect of T007 on induction of KLF4 mRNA” value (HT-29 cells [4]; HT-29, cotreatment with T007) was “decreased significantly”, the “part of induced KLF4 mRNA response inhibited by T007” value (HT-29 cells [4]; cotreatment with T007) was 60-80% and the “luciferase activity, VP-PPARγ with GAL4 PGC-1 and GAL4 SRC-1” value (PPARγ) was “significantly induced luciferase activity”.
For `CC1(C)C(=O)C(C#N)=C[C@]2(C)[C@H]3C(=O)C=C4[C@@H]5C[C@@](C)(C(=O)O)CC[C@]5(C)CC[C@@]4(C)[C@]3(C)CC[C@@H]12` [β-CDODA], the caveolin-1 induction (HT-29 cells [2]) is given as “induced caveolin-1”.
